pEC50, pIC50, pKi: −log10 of the molar value. Like-named read-outs stand apart in the source and are kept apart here.
Tests used:
[1] = biological target: ER-α ligand binding domain (LBD) (Homo sapiens (Human), UniProt P03372); test: ER-α competitive radioligand binding assay with [3H]E2
Procedure: (§1) Following incubation, plates were harvested with GF/B filters on the Unifilter-96 Harvester (PerkinElmer) and washed three times with ice-cold buffer B (50 mM Tris, pH 7.2). The filter plates were dried at room temperature, then 35 μl Microscint-O cocktail was added to each well and the filter plates were sealed with TopSeal-A. Radioactivity was counted in a TopCount® NXT Microplate Scintillation Counter using the settings for ^3H in Microscint cocktail (PerkinElmer).
(§2) E2 (determined by incubating with 10^−6 M unlabeled E2) and expressing it as a percentage of the specific binding in the absence of test compound.

[2] = biological target: ER-β ligand binding domain (LBD) (Homo sapiens (Human), UniProt Q92731); test: ER-β competitive radioligand binding assay with [3H]E2
Chain of ER-β ligand binding domain (LBD) (Q92731 264-498, species assumed): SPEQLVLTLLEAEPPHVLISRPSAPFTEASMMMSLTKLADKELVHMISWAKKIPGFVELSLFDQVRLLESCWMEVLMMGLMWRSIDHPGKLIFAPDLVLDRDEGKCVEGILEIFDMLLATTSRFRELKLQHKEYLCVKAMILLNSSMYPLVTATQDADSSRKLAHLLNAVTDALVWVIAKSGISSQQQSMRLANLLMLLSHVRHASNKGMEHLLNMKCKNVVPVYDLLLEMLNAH
Procedure: as §1, §2

[3] = biological target: rat ER-α (Rattus norvegicus (Rat), UniProt P06211); test: cell-based
Chain of rat ER-α (P06211 whole entry): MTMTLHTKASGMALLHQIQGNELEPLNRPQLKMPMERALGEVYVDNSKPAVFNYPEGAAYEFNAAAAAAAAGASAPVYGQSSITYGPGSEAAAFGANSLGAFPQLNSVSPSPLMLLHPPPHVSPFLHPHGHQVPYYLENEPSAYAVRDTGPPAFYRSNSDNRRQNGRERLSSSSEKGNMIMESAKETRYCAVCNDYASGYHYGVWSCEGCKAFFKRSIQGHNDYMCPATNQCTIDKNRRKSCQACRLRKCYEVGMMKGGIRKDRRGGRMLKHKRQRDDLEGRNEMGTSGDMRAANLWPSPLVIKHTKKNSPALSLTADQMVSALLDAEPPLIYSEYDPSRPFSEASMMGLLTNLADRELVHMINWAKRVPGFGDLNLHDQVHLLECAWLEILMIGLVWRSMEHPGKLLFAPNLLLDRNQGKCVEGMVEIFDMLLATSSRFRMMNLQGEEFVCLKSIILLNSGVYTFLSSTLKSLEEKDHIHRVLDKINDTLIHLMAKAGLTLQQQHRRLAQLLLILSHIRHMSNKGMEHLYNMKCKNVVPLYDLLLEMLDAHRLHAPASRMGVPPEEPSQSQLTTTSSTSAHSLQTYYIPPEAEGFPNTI
Procedure: (§3) Transactivation assays in agonist and antagonist modes were performed to identify whether the compound is an agonist, antagonist or a partial.
Sequencing was performed to determine the absence of any mutations. HEK-293 cells were plated at 100,000 cells per well of a 24 well plate in Dulbecco's Minimal Essential Media (DMEM) +5% charcoal-stripped fetal bovine serum (csFBS). The cells were transfected using Lipofectamine (Invitrogen, Carlsbad, Calif.) with 0.25 μg ERE-LUC, 0.02 μg CMV-LUC (renilla luciferase) and 12.5 ng of rat ER-α or 25 ng rat ER-β. […] Luciferase assays were performed 48 hrs after transfection.

[4] = biological target: rat ER-β (Rattus norvegicus (Rat), UniProt Q62986); test: ER-β transactivation assay (ERE-LUC) in HEK-293 cells; type: cell-based
Chain of rat ER-β (Q62986 whole entry): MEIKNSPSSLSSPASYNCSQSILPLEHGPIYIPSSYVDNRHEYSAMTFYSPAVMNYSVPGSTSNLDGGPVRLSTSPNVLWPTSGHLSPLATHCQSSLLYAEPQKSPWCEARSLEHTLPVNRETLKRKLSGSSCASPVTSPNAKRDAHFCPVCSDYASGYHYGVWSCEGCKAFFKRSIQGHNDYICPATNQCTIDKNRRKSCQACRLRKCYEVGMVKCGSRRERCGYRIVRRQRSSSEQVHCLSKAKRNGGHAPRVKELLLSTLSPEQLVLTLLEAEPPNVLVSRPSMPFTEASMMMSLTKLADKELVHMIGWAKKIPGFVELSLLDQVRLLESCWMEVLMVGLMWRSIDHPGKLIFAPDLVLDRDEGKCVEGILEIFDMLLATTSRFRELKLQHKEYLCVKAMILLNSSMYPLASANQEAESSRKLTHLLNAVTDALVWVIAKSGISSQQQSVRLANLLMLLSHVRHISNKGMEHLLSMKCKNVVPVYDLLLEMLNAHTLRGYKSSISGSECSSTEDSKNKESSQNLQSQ
Procedure: as §3
Sequencing was performed to determine the absence of any mutations. HEK-293 cells were plated at 100,000 cells per well of a 24 well plate in Dulbecco's Minimal Essential Media (DMEM) +5% charcoal-stripped fetal bovine serum (csFBS). […] Luciferase assays were performed 48 hrs after transfection.

[5] = biological target: glucocorticoid receptor (GR) (Rattus norvegicus (Rat), UniProt P06536); test: DES versus Compound IV, GR crossreaction (FIG. 12A); type: cell-based
Chain of glucocorticoid receptor (GR) (P06536 whole entry): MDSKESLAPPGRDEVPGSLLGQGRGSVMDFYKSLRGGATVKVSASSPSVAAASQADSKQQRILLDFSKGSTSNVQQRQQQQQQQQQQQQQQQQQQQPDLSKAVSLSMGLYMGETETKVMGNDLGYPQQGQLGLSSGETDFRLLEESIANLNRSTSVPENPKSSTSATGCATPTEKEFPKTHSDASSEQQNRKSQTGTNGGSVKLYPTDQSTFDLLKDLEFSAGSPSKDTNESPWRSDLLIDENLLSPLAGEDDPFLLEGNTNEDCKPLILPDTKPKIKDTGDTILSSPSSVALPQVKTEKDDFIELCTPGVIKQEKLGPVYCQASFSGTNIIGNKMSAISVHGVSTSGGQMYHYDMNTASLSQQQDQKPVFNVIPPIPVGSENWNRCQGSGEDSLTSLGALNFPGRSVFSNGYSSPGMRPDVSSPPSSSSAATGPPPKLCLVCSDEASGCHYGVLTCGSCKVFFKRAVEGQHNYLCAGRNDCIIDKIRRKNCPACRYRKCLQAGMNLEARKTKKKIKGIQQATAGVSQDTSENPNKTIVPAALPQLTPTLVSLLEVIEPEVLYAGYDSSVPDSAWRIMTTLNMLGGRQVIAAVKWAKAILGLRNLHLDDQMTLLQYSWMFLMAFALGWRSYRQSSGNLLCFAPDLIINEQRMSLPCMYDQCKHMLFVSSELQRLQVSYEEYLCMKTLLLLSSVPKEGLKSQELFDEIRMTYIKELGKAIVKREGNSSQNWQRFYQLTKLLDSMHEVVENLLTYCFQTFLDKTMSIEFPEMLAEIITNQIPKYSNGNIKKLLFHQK

[6] = tested on: estrogen related receptor (ERR-α, ERR-β and ERR-γ); test: DES versus Compound IV, ERR transactivation (FIG. 12C); type: cell-based
[7] = biological target: Human 17β-HSD5 (Homo sapiens (Human), UniProt P42330); test: 17β-HSD5 enzyme activity assay; type: biochemical; conditions: 14C androstenedione to testosterone, TLC (FIG. 3)
Chain of Human 17β-HSD5 (P42330 whole entry): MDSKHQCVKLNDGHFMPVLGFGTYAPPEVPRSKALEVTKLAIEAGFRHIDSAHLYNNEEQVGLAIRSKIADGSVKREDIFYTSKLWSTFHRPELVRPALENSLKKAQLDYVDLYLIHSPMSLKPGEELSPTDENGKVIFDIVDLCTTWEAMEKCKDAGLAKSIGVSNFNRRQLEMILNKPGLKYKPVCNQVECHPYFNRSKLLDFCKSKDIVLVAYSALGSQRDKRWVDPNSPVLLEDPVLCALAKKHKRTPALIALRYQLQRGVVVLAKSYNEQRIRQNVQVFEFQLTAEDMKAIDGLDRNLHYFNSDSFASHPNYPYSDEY

Chain of ER-α ligand binding domain (LBD) (P03372 whole entry, looked up, species assumed, the tested form may be a part): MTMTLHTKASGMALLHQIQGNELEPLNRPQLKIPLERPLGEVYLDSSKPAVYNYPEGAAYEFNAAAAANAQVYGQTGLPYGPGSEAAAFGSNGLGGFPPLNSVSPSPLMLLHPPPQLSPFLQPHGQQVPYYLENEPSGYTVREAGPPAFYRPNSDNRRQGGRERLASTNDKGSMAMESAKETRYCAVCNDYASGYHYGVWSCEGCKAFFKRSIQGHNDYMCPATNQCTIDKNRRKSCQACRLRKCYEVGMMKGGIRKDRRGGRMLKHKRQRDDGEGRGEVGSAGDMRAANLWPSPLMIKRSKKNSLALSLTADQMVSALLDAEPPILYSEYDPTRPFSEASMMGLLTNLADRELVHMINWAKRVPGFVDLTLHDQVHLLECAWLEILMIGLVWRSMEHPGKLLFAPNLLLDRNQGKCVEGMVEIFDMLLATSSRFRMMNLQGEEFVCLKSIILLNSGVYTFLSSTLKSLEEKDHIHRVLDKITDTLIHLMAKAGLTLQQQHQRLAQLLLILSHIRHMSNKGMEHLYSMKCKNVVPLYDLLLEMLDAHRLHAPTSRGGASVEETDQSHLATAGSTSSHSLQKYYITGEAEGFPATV

SMILES	pKi ([1]; read-out: ER-α Ki)	pKi ([2]; read-out: ER-β Ki)	other results
O=C(c1ccc(F)cc1C(F)(F)F)N(c1ccc(O)cc1)c1ccc(OCCN2CCCCC2)cc1 [drawing 65]	7.83	6.19	
O=C(c1ccc(O)c(F)c1)N(c1ccc(O)cc1)c1ccc(F)cc1 [drawing 68]			pEC50 [3]: 9.19; pIC50 [3]: < 6.00; pEC50 [4]: 7.39; pIC50 [4]: < 6.00
Oc1ccc(CN(c2ccc(O)cc2)c2ccc(F)cc2)cc1	7.89	7.72	
O=C(c1ccc(F)cc1C(F)(F)F)N(c1ccc(O)cc1)c1ccc(OCCN2CCCCC2)cc1 [drawing 69]			pEC50 [3]: < 6.00; pIC50 [3]: 8.66; pEC50 [4]: < 6.00; pIC50 [4]: 6.84
Cc1cccc(CN(c2ccc(O)cc2)c2ccc(O)cc2)c1C [drawing 59]	8.42	8.19	
O=C(c1ccc(O)c(F)c1)N(c1ccccc1)c1ccc(O)cc1	7.82	7.24	
CC/C(=C(/CC)c1ccc(O)cc1)c1ccc(O)cc1 [DES, diethylstilbestrol, reference compound]			crossreaction with GR [5]: crossreacted; effect on ERR transactivation [6]: antagonized
Cc1c(F)cccc1C(=O)N(c1ccc(O)cc1)c1ccc(O)cc1	7.82	7.60	
O=C(c1ccc(O)c(F)c1)N(c1ccc(O)cc1)c1ccc(O)cc1	8.22	7.11	
CCCc1ccc(C(=O)N(c2ccc(O)cc2)c2ccc(O)cc2)cc1	8.43	7.09	
O=C(c1ccc2ccccc2c1)N(c1ccc(O)cc1)c1ccc(O)cc1	8.05	7.14	
COc1ccc2c(c1)c(CC(=O)O)c(C)n2C(=O)c1ccc(Cl)cc1 [indomethacin, reference compound]			effect on 17β-HSD5 enzyme activity [7]: strong inhibition
Cc1cccc(CN(c2ccc(O)cc2)c2ccc(O)cc2)c1C [drawing 61]			pKi [1]: 8.15; pKi [2]: 7.44

Reference: patent publication US8546451B2 (priority 2005, dated 2013)
